Here are results for 14 molecules from BindingDB's records for PubMed 1464308 (Cnrs, 1992).

The pKi is −log10 of the Ki, conventionally taken in molar units.

pKi: −log10 of the molar value. Where only a bound is given, the exact number is not on record here.

The target of this test is 5-hydroxytryptamine receptor 5A (Mus musculus, UniProt P30966).
Chain of 5-hydroxytryptamine receptor 5A (P30966 whole entry): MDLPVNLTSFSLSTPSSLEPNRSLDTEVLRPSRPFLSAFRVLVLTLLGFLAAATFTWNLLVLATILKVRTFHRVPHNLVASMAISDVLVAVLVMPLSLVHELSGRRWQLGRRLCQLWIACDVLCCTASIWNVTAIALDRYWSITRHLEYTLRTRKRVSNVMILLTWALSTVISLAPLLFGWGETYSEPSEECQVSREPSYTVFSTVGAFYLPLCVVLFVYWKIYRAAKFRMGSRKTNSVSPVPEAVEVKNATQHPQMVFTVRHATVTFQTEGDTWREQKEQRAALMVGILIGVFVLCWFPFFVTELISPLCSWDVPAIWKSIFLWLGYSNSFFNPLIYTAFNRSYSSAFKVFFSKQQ
Molecule `CC(C)NCC(O)COc1cccc2[nH]ccc12` (centres undefined) [LB-46] gave a pKi of under 5.00.

In turn, `CN1C[C@H](C(=O)N[C@]2(C)O[C@@]3(O)[C@@H]4CCCN4C(=O)[C@H](Cc4ccccc4)N3C2=O)C=C2c3cccc4[nH]cc(c34)C[C@H]21` [12'-hydroxy-2'-methyl-5'alpha-(phenylmethyl)ergotaman-3',6',18-trione] had a negative logarithm of the Ki (pKi) of 8.40.

`NCCc1ccc(O)c(O)c1`: the pKi was under 5.00.

`CCN(CC)C(=O)[C@@H]1C=C2c3cccc4[nH]c(Br)c(c34)C[C@H]2N(C)C1` [LSD,2-Bromo] showed a pKi of 8.70.

`COc1ccc2[nH]cc(C3=CCNCC3)c2c1` [5-Methoxy-3-(1,2,3,6-tetrahydro-pyridin-4-yl)-1H-indole(RU-24969)]: the pKi is 6.50.

Turning to `FC(F)(F)c1cccc(N2CCNCC2)c1` [TFMPP], the pKi is 5.60.

In turn, `CSc1ccc2c(c1)C(N1CCN(C)CC1)Cc1ccccc1S2` (centres undefined) [methanesulfonic acid;1-methyl-4-(3-methylsulfanyl-5,6-dihydrobenzo[b][1]benzothiepin-5-yl)piperazine] had a negative-log Ki (pKi) of 7.00.

On to `CN(C)CCc1c[nH]c2ccc(O)cc12` [3-[2-(dimethylamino)ethyl]indol-5-ol], for which the negative logarithm of the Ki (pKi) is 6.00. This pKi is 1.00 log units lower than that of the molecule before.

For `CNS(=O)(=O)Cc1ccc2[nH]cc(CCN(C)C)c2c1` [Sumax], the negative-log Ki (pKi) was under 5.00.

In the case of `O=C(c1ccc(F)cc1)C1CCN(CCn2c(=O)[nH]c3ccccc3c2=O)CC1` [3-(2-{4-[(4-fluorophenyl)carbonyl]piperidin-1-yl}ethyl)-1,2,3,4-tetrahydroquinazoline-2,4-dione], the pKi was under 5.00.

`O=C(CCCN1CCC2(CC1)C(=O)NCN2c1ccccc1)c1ccc(F)cc1` [8-[4-(4-fluorophenyl)-4-oxidanylidene-butyl]-1-phenyl-1,3,8-triazaspiro[4.5]decan-4-one] showed a negative-log Ki (pKi) of 5.60.

In the case of `CC[C@@H](CO)NC(=O)[C@@H]1C=C2c3cccc4c3c(cn4C)C[C@H]2N(C)C1`, the negative-log Ki (pKi) was 7.20. Compared with the last molecule, the pKi is 1.60 log units higher.

The molecule `CCCN(CCC)C1CCc2cccc(O)c2C1` (centres undefined) showed a pKi of 5.90.

`NCC(O)c1ccc(O)c(O)c1` (stereo not drawn) [Noradrenaline,(+)]: the negative-log Ki (pKi) is under 5.00.
